Measurements as given in paper PMC11989179, “Odor-Binding Protein 2 in Apis mellifera ligustica Plays Important Roles in the Response to Floral Volatiles Stimuli from Melon and Tomato Flowers” (International Journal of Molecular Sciences, 2025).

Assays:
AmelOBP2 [1] = target: T1, AmelOBP2 (Apis mellifera, UniProt A0A8U0WQ64); test: Fluorescence competitive binding assay with 1-NPN as probe; parameters: species or system Apis mellifera ligustica; conditions: for Ki: Ki = [IC50]/(1 + [1-NPN]/K1-NPN), read-out: Ki (binding constant); for IC50: odor standard concentration at which AmelOBP2/1-NPN fluorescence is reduced to half; for binding ability to AmelOBP2 (in words): fluorescence competitive binding
Protocol: The binding ability of the recombinant protein AmelOBP2 to the 14 tomato and 25 melon floral volatiles was determined using a fluorescence competitive binding assay. The IC50 values of the odor standard compounds obtained from the fluorescence competitive binding curve (Figure 6) and the binding constant Ki between AmelOBP2 and the odor standard compounds are shown in Table 1.
(§1) The ability of AmelOBP2 to bind to floral volatiles in tomato and melon greenhouses was determined using an RF-5301PC fluorescence spectrophotometer (Shimadzu, Japan) with […] (1-NPN) (TCI, Japan) as the fluorescence probe (Table A5). The parameters of the RF-5301PC fluorescence spectrophotometer are set as follows: the emission wavelength range is 360–500 nm, the excitation wavelength is 337 nm, and the slit width is 3 nm. This process was similar to that described by Du et al.. Data were processed using GraphPad Prism 8.0. The binding constant (Ki) of AmelOBP2 and odor volatiles were computed using the following equation [26]:Ki = [IC50]/(1 + [1-NPN]/K1-NPN)
IC50 refers to the concentration of the odorant at which the fluorescence intensity of the AmelOBP2/1-NPN complex was reduced by 50%. 1-NPN refers to the concentration of unbound 1-NPN, while K1-NPN refers to the binding constant of the AmelOBP2/1-NPN complex. The smaller the Ki, the stronger the binding ability of the substance to the recombinant protein. Ki values ranging from 0 to 5µM indicate strong binding ability with AmelOBP2.

[2] = test system: Apis mellifera ligustica antennae; test: Electroantennogram (EAG) response to compounds under RNAi silencing; assay type: in vivo; parameters: concentration or dose not given beside the values; conditions: decrease of EAG response in honeybees fed siAmelOBP2
From the text: To clarify the physiological function of amelobp2 in the detection of floral volatiles in honeybees, we selected the following five volatiles: e-2-hexenal, e-2-octenal, 1-nonanal, 2-methyl-5-(1-methyl ethenyl)-cyclohexanone, and methyl benzene. Specifically, e-2-hexenal and e-2-octenal are volatiles of melon flowers; 2-methyl-5-(1-methyl ethenyl)-cyclohexanone and methyl benzene are volatiles of tomato flowers; and 1-nonanal is both a melon flower volatile and a tomato flower volatile. The antennal electrical activity of the honeybees was measured after feeding with siAmelOBP2.
Based on the results of the fluorescence competitive binding tests and our previous research involving EAG tests, odor-standard compounds were identified for testing (Table A5). The optimal siRNA and silencing time were determined by an experiment and fed to honeybees. The EAG response was measured using an EAG insect antennal potential measurement system (Syntech, Netherlands). Each measurement was repeated using three antennae. The results of the antennal potential measurements were expressed as the EAG relative response value (rEAG), which was calculated as follows:rEAG = (EAG (X) − EAG (std))/EAG (std)(1)
EAG (X) represents the response amplitude (mV) of the EAG to a given compound, while EAG (std) represents the response amplitude (mV) of the EAG to the reference liquid paraffin at each recording stage.

AmelOBP2 [3] = target: T1, AmelOBP2; test: Binding curve and Scatchard plot of fluorescence probe 1-NPN to recombinant AmelOBP2; parameters: species or system Apis mellifera ligustica; conditions: Scatchard plot; excitation 337 nm, emission maximum 405 nm; read-out: binding constant between AmelOBP2 and the probe
Protocol: At an excitation wavelength of 337 nm, no clear fluorescence signal was observed from the AmelOBP2 protein working solution. By adding 3 μL of the 1-NPN solution to the protein working solution successively, the maximum fluorescence intensity was found at 405 nm, and the fluorescence intensity increased with the increase in the probe concentration. The resulting data were then fitted using regression and Scatchard processing to produce a combination curve and linear equation for AmelOBP2 and 1-NPN (Figure 5).
as §1

AmelOBP2 mRNA = test: RNAi silencing effect on AmelOBP2 mRNA after siRNA feeding (qRT-PCR); assay type: in vivo, Apis mellifera ligustica; conditions: 8 μg per bee, 20-d-old honeybees
Protocol: Total RNA and cDNA were obtained according to Du et al.. The obtained cDNA was subjected to qRT-PCR using the SYBR fluorescent dye method (Takara, Japan) (Table A1). The primers were synthesized by Sangon Biotech (Table A2). Data processing refers to Livak and Schmittgen (2^−ΔΔCt method).
Honeybees were collected at 20 d of age from an apiary at the College of Animal Science, Shanxi Agricultural University. Honeybees were randomly divided into 4 groups (n = 40) and starved in an incubator for 30 min (65–70% relative humidity; 28 ± 1 °C). Honeybees were fed with siAmelOBP2 (8 μg per bee dissolved in sucrose solution); the siAmelOBP2 are recorded as siAmelOBP2-1 (79 bp) and siAmelOBP2-2 (329 bp). We used siNC and 30% sucrose solution as the controls. After feeding, the honeybees were placed back in the incubator. At 24, 48, 72, and 96 h, the honeybees were captured randomly in each group, and the silencing effect of RNAi was assessed using qRT-PCR.

T1 sequence (A0A8U0WQ64 entry or part of it): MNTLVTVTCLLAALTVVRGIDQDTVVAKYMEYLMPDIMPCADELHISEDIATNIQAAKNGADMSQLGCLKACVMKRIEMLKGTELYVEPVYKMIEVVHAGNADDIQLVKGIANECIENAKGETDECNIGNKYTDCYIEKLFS

Compound | Ki (AmelOBP2 [1]) | IC50 (AmelOBP2 [1]) | also measured
hexadecenoic acid | 5.29 µM | 11.8 µM | 
CCCCCCCCCCCCCCCCCCCCCCCC [tetracosane] | 13.2 µM | 29.6 µM | 
C=C(C)C1CCC(C)C(=O)C1 (centres unmarked) [2-methyl-5-(1-methylethenyl)-cyclohexanone] | 6.03 µM | 13.5 µM | Silencing Efficiency (EAG response) [2]: 32.48%
Cc1ccccc1 [methyl benzene] | 8.3 µM | 18.6 µM | Silencing Efficiency (EAG response) [2]: 28.76%
c1ccc(Nc2cccc3ccccc23)cc1 [1-NPN] |  |  | Kd (AmelOBP2 [3]): 2 µM
CC(=O)/C=C/C1=C(C)CCCC1(C)C [trans-β-ionone] | 4.21 µM | 9.43 µM | 
CCCCCC=CC(C)=O [3-nonen-2-one] | 4.3 µM | 9.63 µM | 
CC(C)(C)c1cccc(C(C)(C)C)c1 [1,3-bis (1,1-dimethyl ethyl)-benzene] | 2.85 µM | 6.37 µM | 
Cc1ccc(C(C)C)cc1 [p-cymene] | 3.58 µM | 8.02 µM | 
C=C/C(C)=C/CC=C(C)C [β-ocimene] | 3.75 µM | 8.4 µM | 
C=CC(C)(O)CCC=C(C)C (centres unmarked) [3,7-dimethyl-1,6-octadien-3-ol] | 7.01 µM | 15.7 µM | 
O=CC=Cc1ccccc1 [3-phenyl-2-propenal] | 5.69 µM | 12.7 µM | 
O=CCc1ccccc1 [benzeneacetaldehyde] | 4.55 µM | 10.2 µM | 
Cc1cccc(C)c1 [1,3-dimethyl-benzene] | 11 µM | 24.6 µM | 
CC1=CC(=O)C(C(C)C)CC1 (centres unmarked) [3-methyl-6-(1-methylethyl)-2-cyclohexen-1-one] | 11.2 µM | 25 µM | 
COC(=O)c1ccccc1C(=O)OC [dimethyl phthalate] | 5.54 µM | 12.4 µM | 
CCCCCCCCCCCC=O [dodecanal] | 1.05 µM | 2.35 µM | 
siAmelOBP2-1: siRNA against AmelOBP2 (79 bp); F: GCAAAGUACAUGGAGUAUUTT, R: AAUACUCCAUGUACUUUGCTT (chemistry not given here) |  |  | silencing efficiency (AmelOBP2 mRNA) (AmelOBP2 mRNA; 72 h after siRNA feeding): 62.86%
CC(C)C(=O)OCC(C)(C)C(OC(=O)C(C)C)C(C)C (centres unmarked) [2,2,4-trimethyl-1,3-pentanediol diisobutyrate] | 4.92 µM | 11 µM | 
phytol | 16.2 µM | 36.3 µM | 
CCCCCCCCCCCCCCCCCCC [nonadecane] | 14.7 µM | 33 µM | 

Compound | Ki (AmelOBP2 [1]) | IC50 (AmelOBP2 [1]) | also measured
CCCCCCCCCCCCCCCC(=O)OC [methyl palmitate] |  |  | binding ability to AmelOBP2 (in words) (AmelOBP2 [1]): exhibited binding ability
CC=Cc1ccc(OC)c(OC)c1 [1,2-dimethoxy-4-(1-propenyl)-benzene] | 7.68 µM | 17.2 µM | 
CCCCCCCCCCCCCCCCCCCCC [heneicosane] | 21.7 µM | 48.6 µM | binding ability to AmelOBP2 (in words) (AmelOBP2 [1]): relatively weak binding ability
CCCCCCCCCC=O [decanal] | 3.72 µM | 8.32 µM | 
CCCCCCC/C=C/C=O [e-2-decenal] | 2.42 µM | 5.41 µM | 
O=Cc1ccccc1 [benzaldehyde] | 3.74 µM | 8.37 µM | 
CCCCC/C=C/C=O [e-2-octenal] | 7.45 µM | 16.7 µM | Silencing Efficiency (EAG response) [2]: 55.20%
C=C1CC/C=C(\C)CC[C@@H]2[C@@H]1CC2(C)C [β-caryophyllene] | 4.84 µM | 10.8 µM | 
CC1=CCC(C(C)C)=CC1 [gamma-terpinene] | 4.16 µM | 9.31 µM | 
C=CC(=C)CCCC(=C)C [alpha-myrcene] | 2.76 µM | 6.18 µM | 
CCCCCCCCC=O [1-nonanal] | 5.26 µM | 11.8 µM | Silencing Efficiency (EAG response) [2]: 37.28%
CCCCCCCCCCCCCCCC(=O)OCC [hexadecanoic acid, ethyl ester] | 12.8 µM | 28.8 µM | binding ability to AmelOBP2 (in words) (AmelOBP2 [1]): exhibited binding ability
siAmelOBP2-2: siRNA against AmelOBP2 (329 bp); F: GGAUCGCGAAUGAGUGCAUTT, R: AUGCACUCAUUCGCGAUCCTT (chemistry not given here) |  |  | silencing efficiency (AmelOBP2 mRNA) (AmelOBP2 mRNA; 24 h after siRNA feeding): 58.87%; silencing efficiency (AmelOBP2 mRNA) (AmelOBP2 mRNA; 48 h after siRNA feeding): 47.35%; silencing efficiency (AmelOBP2 mRNA) (AmelOBP2 mRNA; 72 h after siRNA feeding): 79.83%; silencing efficiency (AmelOBP2 mRNA) (AmelOBP2 mRNA; 96 h after siRNA feeding): 67.19%
CCCCCCCCCCCCCCCCC [heptadecane] | 16.7 µM | 37.3 µM | 
Cc1ccc(C)c(C=O)c1 [2,5-dimethyl-benzaldehyde] | 7.12 µM | 15.9 µM | 
O=CCCc1ccccc1 [benzenepropanal] | 7.3 µM | 16.3 µM | 
CCCCCCCCCCCCCC [tetradecane] | 8.06 µM | 18 µM | 
CCCCCCCCCCCCCCCC [hexadecane] | 30.6 µM | 68.6 µM | binding ability to AmelOBP2 (in words) (AmelOBP2 [1]): relatively weak binding ability
CCC/C=C/C=O [e-2-hexenal] | 2.83 µM | 6.33 µM | Silencing Efficiency (EAG response) [2]: 34.64%
C=C(C)c1ccc(C)cc1 [1-methyl-4-(1-methylethenyl)-benzene] | 6.23 µM | 13.9 µM | 
